pIC50: −log10 of the molar value. A value given as a limit tells only on which side of the number the result lay.

In assay [1] the test system is Staphylococcus aureus. Put plainly: Antibiofilm activity against methicillin-resistant Staphylococcus aureus CH 10850 at 100 ug/ml relative to control. Format: functional. As to conditions: dose 100 µg/ml.
Assay [2] concerns Pseudomonas aeruginosa. The assay is described as follows: Antibiofilm activity against Pseudomonas aeruginosa assessed as inhibition of biofilm formation at 100 ug/ml incubated for 24 hrs by crystal violet staining based analysis relative to control. Format: functional. Also noted: scale not given: the % may be the effect or the level left. Conditions: dose 100 µg/ml.
The test system of another assay is Micrococcus luteus. Put plainly: Antibiofilm activity against Micrococcus luteus at 31.25 ug/ml incubated for 48 hrs by crystal violet staining based analysis relative to control. Format: functional. As to conditions: dose 31.25 µg/ml.
Assay [3] deals with Pseudooceanicola batsensis. Put plainly: Antibiofilm activity against Pseudooceanicola-batsensis at 31.25 ug/ml incubated for 48 hrs by crystal violet staining based analysis relative to control. It counts as functional. As to conditions: dose 31.25 µg/ml.
Another assay relates to Marinobacter nauticus. The assay is described as follows: Antibiofilm activity against Marinobacter hydrocarbonoclasticus at 31.25 ug/ml incubated for 24 hrs by crystal violet staining based analysis relative to control. Conditions: dose 31.25 µg/ml. Format: functional.
Assay [4] concerns Staphylococcus aureus. The assay is described as follows: Antibiofilm activity against Staphylococcus aureus ATCC 25923 after 24 hrs by crystal violet staining based assay. It counts as functional, organism-based. Conditions: ATCC 25923, 24 h.
For assay [5], the system named is Staphylococcus aureus. The assay is described as follows: Antibiofilm activity against Staphylococcus aureus ATCC 6538 after 24 hrs by crystal violet staining based assay. It counts as functional, organism-based. As to conditions: ATCC 6538, 24 h.
Assay [6] concerns Staphylococcus aureus. Put plainly: Antibiofilm activity against Staphylococcus aureus ATCC 6538 assessed as reduction in biofilm formation at 50 ug/ml measured after 24 hrs by crystal violet staining based analysis relative to control. The arrangement: scale not given: the % may be the effect or the level left. As to conditions: dose 50 µg/ml. Format: functional.
Assay [7] has as its system Streptococcus mutans. The assay is described as follows: Antibiofilm activity against Streptococcus mutans UA159 assessed as inhibition of biofilm formation. Format: functional, organism-based.
In assay [8] the test system is Staphylococcus aureus. Put plainly: Antibiofilm activity against Staphylococcus aureus ATCC 6538 at 100 ug/ml incubated for 24 hrs by crystal violet staining based microplate reader method relative to control. It counts as functional. Conditions: dose 100 µg/ml.
Assay [9] has as its system Streptococcus mutans. The assay is described as follows: Antibiofilm activity against clinical isolate Streptococcus mutans 2.M7/4 assessed as inhibition of biofilm formation at 31.0 ug/ml relative to control. As to conditions: dose 31 µg/ml. Format: functional. The arrangement: scale not given: the % may be the effect or the level left.
Assay [10] deals with Streptococcus mutans. Put plainly: Antibiofilm activity against Streptococcus mutans UA159 assessed as inhibition of biofilm formation at 31.0 ug/ml relative to control. Format: functional. Also noted: scale not given: the % may be the effect or the level left. Conditions: dose 31 µg/ml.
Assay [11] deals with Pseudomonas aeruginosa. Put plainly: Antibiofilm activity against Pseudomonas aeruginosa ATCC 15442 after 24 hrs by crystal violet staining based assay. Format: functional, organism-based. Conditions: ATCC 15442, 24 h.
Assay [12] deals with Staphylococcus aureus. Put plainly: Antibiofilm activity against methicillin-resistant Staphylococcus aureus CH 10850 at 32 ug/ml relative to control. Format: functional. As to conditions: dose 32 µg/ml.
A further assay concerns Candida albicans. The assay is described as follows: Antibiofilm activity against Candida albicans assessed as reduction in biofilm formation at 200 ug/ml measured after 48 hrs by crystal violet staining based analysis relative to control. Format: functional. Also noted: scale not given: the % may be the effect or the level left. Conditions: dose 200 µg/ml.
Assay [13] relates to Staphylococcus epidermidis. Put plainly: Antibiofilm activity against Staphylococcus epidermidis RP62A. Format: functional.
Assay [14] has as its system Staphylococcus aureus. Put plainly: Antibiofilm activity against methicillin-resistant Staphylococcus aureus CH 10850 at 50 ug/ml relative to control. Conditions: dose 50 µg/ml. It counts as functional.
Assay [15] relates to Staphylococcus aureus. The assay is described as follows: Antibiofilm activity against methicillin-resistant Staphylococcus aureus ATCC 6538 at 100 ug/ml incubated for 24 hrs by crystal violet staining based microplate reader method relative to control. It counts as functional. Conditions: dose 100 µg/ml.

Consider `CC(=O)OC1OC2OC(=O)[C@H](C)C34OOC([C@@]5(C)CCCC(C)(C)C5)(CC[C@@H]1C23)O4` (stereo partly drawn), for which, in the assay with Staphylococcus aureus [1], the Activity turned out to be 99%.

As to `CCC(C)C(=O)NCCc1ccccc1` (stereo not drawn), the Activity with Pseudomonas aeruginosa [2] was determined as 50.6%.

`C=C(C)C(O)CC/C(C)=C/C[C@@]12OC(C)(C)[C@H](Cl)C[C@]1(Cl)C(=O)c1c(O)cc(O)cc1C2=O` (stereo partly drawn): the Activity was determined as 97% in the assay on Micrococcus luteus, 13.4% in [3] and 56.9% in the assay on Marinobacter nauticus.

The pIC50 is the IC50 on a negative log10 scale, so that one unit is a factor of ten. Turning to `CC(C)(C)OC(=O)NCCn1cc(-c2nc(-c3c[nH]c4ncccc34)cs2)c2ccccc21`, the pIC50 is 5.08 in the assay with Staphylococcus aureus [4] and 4.95 with Staphylococcus aureus [5].

As to `COc1cc(-c2ccccn2)nc2cnsc12`, the Activity in the assay with Staphylococcus aureus [6] was above 50%.

Regarding `Cc1ccc(S(=O)(=O)n2cc3c4c2C(=O)C(NCCc2ccc5c(c2)COC5)=CC4=NCC3)cc1`, the pIC50 in the assay on Streptococcus mutans [7] was 6.40.

In the case of `O=C(OCc1ccccc1)c1ccccc1` [BENZYL BENZOATE], in the assay with Pseudomonas aeruginosa [2], the Activity was found to be 37.7%.

`C=C1CCC(Br)C(C)(C)C1C[C@@]12OC(C)(C)[C@H](Cl)C[C@]1(Cl)C(=O)c1c(O)cc(O)cc1C2=O` (stereo partly drawn): the values for the Activity (in the assay on Micrococcus luteus; in [3]; in the assay with Marinobacter nauticus) were 100%, 26.2% and 59.3%, respectively.

In the assay with Marinobacter nauticus, `C=C1CCC(Cl)C(C)(C)C1C[C@@]12OC(C)(C)[C@H](Cl)C=C1C(=O)c1c(cc(O)c(C)c1O)C2=O` (stereo partly drawn) displayed an Activity of 33.7%.

`CC(C)=CCC/C(C)=C/[C@@H]1CC(C)=C[C@]2(C=C(CO)[C@H]3C[C@@H](O)C(C)=C[C@H]3O2)O1` showed an Activity in the assay on Staphylococcus aureus [8] above 95%.

Regarding `CCCCCCCCC[C@H](CC(=O)NCCCN)N1CC(=O)N[C@@H](Cc2ccccc2)C1=O`, the Activity with Streptococcus mutans [9] was determined as 34.8%; in the assay with Streptococcus mutans [10] it was 90%.

Take `Cn1cc(-c2csc(-c3cn(CCN)c4ccc(F)cc34)n2)c2cccnc21`: the pIC50 in the assay on Staphylococcus aureus [4] was 5.90; in the assay with Staphylococcus aureus [5], 4.88; in the assay on Pseudomonas aeruginosa [11] it was 5.00.

For the compound `NCC(c1c[nH]c2cc(Br)ccc12)c1c[nH]c2cc(Br)ccc12`, the Activity in the assay with Staphylococcus aureus [12] is 56.3%.

For the compound `CC(C)=CCC/C(C)=C\C[C@@]12OC(C)(C)[C@H](Cl)C[C@]1(Cl)C(=O)c1c(cc(O)c(C)c1O)C2=O`, in the assay on Marinobacter nauticus, the Activity came to 28%.

On to `CC(C)=CCC/C(C)=C/[C@@H]1CC(C)=C[C@]2(C=C(CO)[C@H]3CC(=O)C(C)=C[C@H]3O2)O1`, for which the Activity with Staphylococcus aureus [8] is given as above 75%.

In the case of `C/C=C1/C(=O)/C(=C(/O)C(C)CCCCCC)C(=O)N1C` (stereo not drawn) [PENICILLENOL B1], the Activity with Candida albicans is listed as 80%.

With `Cc1c(O)cc2c(c1O)C(=O)[C@@]1(Cl)C[C@@H](Cl)C(C)(C)O[C@@]1(CC1C(C)(C)C(Cl)CC[C@@]1(C)O)C2=O` (stereo partly drawn), the Activity with Marinobacter nauticus was determined as 25.1%.

Turning to `CCCCC/C=C/C(=O)CCCCCCCC(=O)O`, in [13], the MBIC is above 128 µg/mL.

In the assay on Staphylococcus aureus [14], `COC(=O)[C@H](C)c1c([C@@]2(C)CCCC(C)(C)C2)ccc2c1C(=O)OC2` displayed an Activity of 99.9%.

Regarding `CCCCCCC(C)/C(O)=C1\C(=O)[C@H](C(C)O)N(C)C1=O` (stereo partly drawn), in the assay with Candida albicans, the Activity was determined as 80%.

Take `CC(C)=CCC/C(C)=C\C[C@@]12OC(C)(C)[C@H](Cl)C=C1C(=O)c1c(cc(O)c(C)c1O)C2=O`: the Activity with Marinobacter nauticus was 23.4%.

The compound `CC(=O)OCC1=C[C@]2(C=C(C)C[C@@H](/C=C(\C)CCC=C(C)C)O2)O[C@@H]2C=C(C)C(=O)C[C@H]12` gave an Activity with Staphylococcus aureus [15] of 50%.

As to `COCCn1cc(-c2csc(-c3cn(C(=O)OC(C)(C)C)c4ccccc34)n2)c2cccnc21`, the results for the pIC50 in the assay with Staphylococcus aureus [4] and in the assay on Staphylococcus aureus [5] were 5.43 and 4.84, respectively.

Take `COCCn1cc(-c2nc(-c3c[nH]c4ncccc34)cs2)c2cc(Br)ccc21`: the figures for the pIC50 in the assay on Staphylococcus aureus [4], with Staphylococcus aureus [5] and in the assay on Pseudomonas aeruginosa [11] were 5.77, 4.68 and 5.01, respectively.

`CCCCCC1OC1C(O)CCCCCCCCCC(=O)O` (stereo not drawn): the MBIC in assay [13] is 32 µg/mL.

Compound `CC(=O)O[C@H]1C[C@@H]2C(CO)=C[C@]3(C=C(C)C[C@@H](/C=C(\C)CCC=C(C)C)O3)O[C@@H]2C=C1C` showed an Activity with Staphylococcus aureus [15] of 50%.

Regarding `C/C(=C/C[C@@]12OC(C)(C)[C@H](Cl)C[C@]1(Cl)C(=O)c1c(O)cc(O)cc1C2=O)CC/C=C(\C)CO`, in the assay with Marinobacter nauticus, the Activity is given as 60.2%.

The values are drawn from ChEMBL document CHEMBL5352385, “Marine natural products and their synthetic analogs as promising antibiofilm agents for antibiotics discovery and development” (Eur J Med Chem, 2022).
